Holding throughout (type): cell-based
The target of one assay is T1, RORα (Homo sapiens, UniProt P35398).
T1 construct: uniprot ID P35398-2, aa 266- 523; expressed in transfected cells; host or cells: HEK293T
T1 sequence (P35398 266-523): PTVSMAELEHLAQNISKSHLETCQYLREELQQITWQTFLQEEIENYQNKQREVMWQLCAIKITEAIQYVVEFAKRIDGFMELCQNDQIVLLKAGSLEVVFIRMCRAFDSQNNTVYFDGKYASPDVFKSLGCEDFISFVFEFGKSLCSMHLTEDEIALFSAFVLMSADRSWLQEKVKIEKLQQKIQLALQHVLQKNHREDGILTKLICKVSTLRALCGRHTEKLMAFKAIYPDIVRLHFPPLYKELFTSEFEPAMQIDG
Nature of the assay: Gal4-RORα hybrid reporter gene assay in HEK293T cells. The following applies: for IC50: Gal4 hybrid reporter gene assay, inverse agonism, mean±S.E.M., n≥4. The text has this: (§1) In vitro characterization of compounds 1, 2, and 3 in Gal4‐ROR hybrid reporter gene assays confirmed inverse RORγ agonism with micromolar to sub‐micromolar IC50 values (Table 1).
(§2) In vitro Characterization Methods
(§3) Hybrid reporter gene assays. The hybrid receptor plasmids pFA-CMV-hRORα-LBD (NR1F1, isoform 1, uniprot ID P35398-2, aa 266-523), pFA-CMV-hRORβ-LBD (NR1F2, isoform 2, uniprot ID Q92753-2, aa 216-470), and pFA-CMV-hRORγ-LBD (NR1F3, isoform 1, uniprot ID P51449, aa 263-518) encode the Gal4-DBD fused to the hinge region and ligand binding domain of the canonical isoform of the respective human nuclear receptor and were cloned as described previously[13,14] using cDNA from SourceBioScience (Nottingham, UK). The Gal4-responsive firefly luciferase reporter pFR-Luc (Stratagene, La Jolla, CA, USA) and pRL-SV40 (Promega, Madison, WI, USA; internal control) were used together with either pFA-CMV-NR-LBD clone for the hybrid reporter gene assays.
(§4) HEK293T cells (German Collection of Microorganisms and Cell Culture GmbH, DSMZ) were cultured in Dulbecco’s modified Eagle’s medium (DMEM), high glucose supplemented with 10 % fetal calf serum (FCS), sodium pyruvate (1 mM), penicillin (100 U/mL), and streptomycin (100 μg/mL) at 37 °C and 5 % CO2 and seeded in 96-well plates (3×10^4 cells/well) twenty-four hours prior to transfection. Before transfection, medium was changed to Opti -MEM without supplements and transient transfection with above mentioned plasmids (pFR-Luc, pRL-SV40 and one pFA-CMV-NR-LBD clone) was carried out with Lipofectamine LTX reagent (Invitrogen) according to the manufacturer’s protocol. Five hours after transfection, medium was changed to Opti -MEM supplemented with penicillin (100 U/mL) a nd streptomycin (100 μg/mL) additionally containing 0.1 % DMSO and the respective test compound or 0.1 % DMSO alone as untreated control. Each concentration was tested in duplicates and each experiment was repeated independently at least two times. Followi ng overnight (14−16 h) incubation, cells were assayed for luciferase activity using the Dual - Glo Luciferase Assay System (Promega) according to the manufacturer’s protocol. Luminescence was measured with a Tecan Spark luminometer (Tecan Deutschland GmbH, G ermany). Normalization of transfection efficiency and cell growth was done by division of firefly luciferase data by Renilla luciferase data and multiplying the value by 1000 resulting in relative light units (RLU). Fold reporter repression was obtained by dividing the mean RLU of a test compound at a respective concentration by the mean RLU of the 0.1% DMSO control. […]
Background: Reporter assays use an easily measured gene product as a stand-in for the process of interest.

A further assay concerns the target T2, RORβ (Homo sapiens, UniProt Q92753).
T2 construct: uniprot ID Q92753-2, aa 216-470; expressed in transfected cells; host or cells: HEK293T
T2 sequence (Q92753 216-470): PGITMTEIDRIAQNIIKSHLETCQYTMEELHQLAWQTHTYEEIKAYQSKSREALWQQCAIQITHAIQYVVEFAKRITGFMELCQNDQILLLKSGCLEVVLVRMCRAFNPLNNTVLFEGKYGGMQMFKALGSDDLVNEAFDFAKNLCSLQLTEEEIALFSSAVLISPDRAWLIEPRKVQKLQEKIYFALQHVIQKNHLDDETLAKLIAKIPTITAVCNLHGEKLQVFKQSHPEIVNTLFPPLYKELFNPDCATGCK
Nature of the assay: Gal4-RORβ hybrid reporter gene assay in HEK293T cells. The following applies: for IC50: Gal4 hybrid reporter gene assay, inverse agonism, mean±S.E.M., n≥4.
From the text: as §1, §2, §3, §4

The target in the next assay is T3, RORγ (Homo sapiens, UniProt P51449).
T3 construct: uniprot ID P51449, aa 263-518; expressed in transfected cells; host or cells: HEK293T
T3 sequence (P51449 263-518): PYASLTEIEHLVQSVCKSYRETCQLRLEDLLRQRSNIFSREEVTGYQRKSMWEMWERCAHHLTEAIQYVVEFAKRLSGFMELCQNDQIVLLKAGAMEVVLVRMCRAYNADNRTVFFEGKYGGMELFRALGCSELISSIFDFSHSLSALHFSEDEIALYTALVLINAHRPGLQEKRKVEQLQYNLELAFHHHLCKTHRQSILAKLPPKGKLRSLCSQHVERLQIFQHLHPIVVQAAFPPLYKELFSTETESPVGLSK
Nature of the assay: Gal4-RORγ hybrid reporter gene assay in HEK293T cells. The note with it: for IC50: Gal4 hybrid reporter gene assay, inverse agonism, mean±S.E.M., n≥4; for potency on RORγ compared to the related RORα and RORβ isoforms (subtype preference): Gal4 hybrid reporter gene assays.
From the text: as §1, §2, §3
HEK293T cells (German Collection of Microorganisms and Cell Culture GmbH, DSMZ) were cultured in Dulbecco’s modified Eagle’s medium (DMEM), high glucose supplemented with 10 % fetal calf serum (FCS), sodium pyruvate (1 mM), penicillin (100 U/mL), and streptomycin (100 μg/mL) at 37 °C and 5 % CO2 and seeded in 96-well plates (3×10^4 cells/well) twenty-four hours prior to transfection. Before transfection, medium was changed to Opti -MEM without supplements and transient transfection with above mentioned plasmids (pFR-Luc, pRL-SV40 and one pFA-CMV-NR-LBD clone) was carried out with Lipofectamine LTX reagent (Invitrogen) according to the manufacturer’s protocol. Five hours after transfection, medium was changed to Opti -MEM supplemented with penicillin (100 U/mL) a nd streptomycin (100 μg/mL) additionally containing 0.1 % DMSO and the respective test compound or 0.1 % DMSO alone as untreated control. Each concentration was tested in duplicates and each experiment was repeated independently at least two times. Followi ng overnight (14−16 h) incubation, cells were assayed for luciferase activity using the Dual - Glo Luciferase Assay System (Promega) according to the manufacturer’s protocol. Luminescence was measured with a Tecan Spark luminometer (Tecan Deutschland GmbH, G ermany). Normalization of transfection efficiency and cell growth was done by division of firefly luciferase data by Renilla luciferase data and multiplying the value by 1000 resulting in relative light units (RLU). Fold reporter repression was obtained by dividing the mean RLU of a test compound at a respective concentration by the mean RLU of the 0.1% DMSO control. IC 50 values were obtained by plotting fold reporter activation vs test compound concentrations and fitting the resulting sigmoidal curve with a four-parameter logistic regression in SigmaPlot 12.5 (Systat Software GmbH, Erkrath, Germany). The Gal4 - ROR hybrid assays were validated with the reference inverse agonists SR1001 and SR1078 , which yielded IC50 values in agreement […]
(1 picture or pasted object on this page, not shown here)

Setting [1] is: precise IC50 could not be determined due to cytotoxicity.

In the case of `O=S(=O)(Cc1ccccc1)N(Cc1ccc(N2CCC(C(F)(F)F)CC2)cc1F)C1CCC1` [Compound 2], the IC50 (usually the concentration that gives 50% inhibition) on RORα came to 23 ± 3 µM; against RORβ it was 22 ± 1 µM; against RORγ, 0.37 ± 0.05 µM. For the same compound, on RORγ, the “potency on RORγ compared to the related RORα and RORβ isoforms (subtype preference)” value is recorded as “more than tenfold higher potency”.

As for `O=C1CC2(CCCC2)CC(=O)N1CCCCN1CCN(c2ccc(Cl)cc2)CC1` [Compound 1], the IC50 at RORα is greater than 10 µM; against RORβ, greater than 10 µM; on RORγ, 4.6 ± 0.5 µM. At RORα (setting [1]), the “activity on RORα (in words)” value is “additionally active”. The “activity on RORβ (in words)” value on RORβ (setting [1]) was “additionally active”.

On to `O=S(=O)(Cc1ccccc1)N(Cc1ccc(N2CCC(C(F)(F)F)CC2)cc1)C1CCC1` [Compound 3], for which the figures for the IC50 at RORα, against RORβ and against RORγ were 10 ± 1 µM, 7.6 ± 0.5 µM and 0.68 ± 0.07 µM, respectively. The “potency on RORγ compared to the related RORα and RORβ isoforms (subtype preference)” value on RORγ was “more than tenfold higher potency”.

Source of the values: article PMC8457062, “Beam Search for Automated Design and Scoring of Novel ROR Ligands with Machine Intelligence” (Angewandte Chemie (International Ed. in English), 2021).
